The test system of experiment [1] is DLD1 cells. As to the kind of experiment: ARP analysis of FUDR treated DLD1 DNA. It counts as cell-based. The conditions noted are these: ARP-based DNA Damage Quantification Kit, same DNA samples. On the procedure:
DNA aliquots (10 μL) from above were diluted in TE buffer (10 μL). DNA concentrations were measured on a Nanodrop 1000 and adjusted to 100 μg/mL in TE buffer. Samples were prepared for ARP analysis using the ARP DNA Damage Quantification Kit (Dojindo #DK02-12). Samples were prepared and analyzed according to the manufacturer's instructions.

Experiment [2] concerns AP sites in calf thymus DNA. As to the kind of experiment: MX or ARP and Cy7MX genomic DNA competition assay. It counts as binding. How it is done:
Calf thymus DNA was purchased from Sigma and was reconstituted overnight at 4° C. in either H2O or 500 mM MX (to eliminate basal AP sites) with gentle shaking (1.5 mL water or solution per 5 mg DNA). For samples reconstituted in MX solution, an ethanol precipitation was performed twice before heat and acid treatment (vide infra) then reconstituted in water. The DNA-water solution was aliquoted to 1.5 mL Eppendorf tubes (360 μL) and 10× Citrate buffer (1M NaCl, 100 μM monosodium phosphate, 100 μM monosodium citrate, pH 5.0) was added to a final concentration of 1×. For t=0 min samples, ice-cold 100% EtOH (1.0 mL) was added immediately and the Eppendorf tubes stored at −20° C. Other samples were placed in a 70° C. heating block for 15-90 minutes in 15-minute increments. Samples were removed from heat, precipitated in ice-cold 100% EtOH (1.0 mL), and then chilled at −20° C. for at least 20 minutes. Samples were centrifuged at 12,000×G for 10 min at 4° C. The supernatant was discarded. The process was repeated once beginning with the addition of EtOH (1.0 mL). The DNA pellet was dissolved in 700 μL H2O or TE buffer. Aliquots of 80 μL were put in 1.5 mL Eppendorf tubes. Any samples not used immediately were stored at −80° C.
Solutions of MX and Cy7MX were prepared in H2O varying [MX] from 0-1.9 M and maintaining at 25 μM. […] The ratios of MX:Cy7MX used in this study were: 0, 0.01, 0.1, 0.5, 1, 5, 10, 50, 100, 250, 500, 1000, 2500, 5000, 10000, 25000, 50000, and 75000. […] The following samples were prepared in triplicate: 20 μL of MX/Cy7MX solution was added to 80 μL aliquots of heat/acid treated DNA (t=45 min). Samples were incubated for 1 h at 37° C. in the dark. Ice-cold EtOH (1.0 mL) was added and the DNA was purified by EtOH precipitation three times as described in the heat/acid treatment of genomic DNA section. DNA was dissolved in 150 μL H2O. Aliquots (125 μL) of the samples were added to a black, clear-bottom 96 well plate (Corning) and analyzed with 750 nm excitation and 800 nm emission. Fluorescence was adjusted to DNA concentration.
As before (section 2.3.2) except solutions of ARP and Cy7MX were prepared in H2O varying [ARP] from 0-75 mM and maintaining at 1 μM. The ratios of ARP: Cy7MX used in this study were: 0, 0.1, 1, 10, 100, 500, 1000, 5000, 10000, 25000, 50000, and 75000.

In experiment [3] the test system is DLD1 cells. As to the kind of experiment: AP site evaluation in FUDR treated DLD1 cells with Cy7MX. It counts as cell-based. The conditions noted are these: 72 h continuous FUDR exposure, UDG KD cells, DNA treated in vitro with UDG. How it is done: DLD1 cells (ATCC #CCL-221) were obtained from the laboratory of Sanford Markowitz at Case Western Reserve University. UDG directed shRNA clones and scrambled targeted control shRNA clones were purchased from Sigma-Aldrich. According to manufacturer's instructions from Lipofectamine 2000 (Invitrogen), HEK293 cells were transfected to produce lentiviral particles that were used to infect DLD1 cells. Forty-eight hours after transfection, DLD1 cells were diluted for passage and selected with puromycin. The UDG knockdown levels were verified by RT-PCR and Western blot analysis.
To allow for cell proliferation, the following approximate numbers of cells were plated for each time point given in parenthesis: 4 million (24 h), 1 million (48 h), and 0.3 million (72 h). Two mL of medium were removed from each plate and replaced with 2 mL of FUDR solution at a final concentration of 0, 10, 200, or 1000 nM in 10 mL. […]
Pure DNA pellets were dissolved in 200 μL 1×UDG buffer. […] DNA concentrations were measured and adjusted to a maximum of 300 μg/mL. Aliquots (125 μL) of the samples were added to a black, clear-bottom 96 well plate (Corning) and analyzed with 760 nm excitation and emission scan of 790-847 nm with a 3 nm step size. Integrated fluorescence intensities were adjusted to DNA concentration and normalized to the FUDR untreated KD+UDG sample.

For `NOCC(=O)NNC(=O)CCCC[C@@H]1SC[C@@H]2NC(=O)N[C@@H]21` [ARP], in the experiment on DLD1 cells [1], the “background and sensitivity of AP site detection” value was “larger background and lower sensitivity than compound Cy7MX”. The “ED50 of Cy7MX, excess of competitor” value in experiment [2] (1 h at 37° C., constant Cy7MX) is 2600 × excess. Moreover, in experiment [2] (calf thymus DNA heat/acid 45 min, FIG. 13), the “ED50, molar ratio of probe to Cy7MX” value worked out at 2600 fold excess.
As for `O=c1[nH]c(=O)n([C@H]2C[C@H](O)[C@@H](CO)O2)cc1F` [FUDR, 5-fluoro-20-deoxyuridine], the “increase in Cy7MX fluorescence intensity (AP sites)” value in the experiment on DLD1 cells [3] is approximately 9 fold.
